The record followed here is patent US9777123B2, “Sulfated beta-O4 low molecular weight lignins” (VIRGINIA COMMONWEALTH UNIVERSITY, priority 2013, dated 2017).

This test addresses T1, SbO4L-thrombin complex (Homo sapiens, UniProt P00734).
T1 construct: purchased Haematologic Technologies, Sigma-Aldrich or Elastin Products Company (not assigned per protease)
In words: Protamine-mediated reversal of SbO4L inhibition of thrombin. In kind it is biochemical. The protocol: FIG. 8. Protamine-mediated reversal of SbO4L inhibition of thrombin. Recovery of thrombin activity at varying levels of protamine following 50% inhibition by SbO4L was measured through the Spectrozyme TH hydrolysis assay at pH 7.4. Solid line represents non-linear fit of the data by a logistic function similar to equation 1 to obtain the RC50, the concentration of protamine necessary to recover 50% thrombin activity.
A major advantage of heparin therapy is its amenability to protamine-based reversal. It is also one of the reasons why fondaparinux continues to suffer because its iatrogenic bleeding is difficult to reverse rapidly. To test whether SbO4L inhibition of thrombin can be reversed, we studied the recovery of thrombin activity following successive introduction of protamine. […] The protamine-mediated recovery profile essentially mirrors the SbO4L-induced inhibition profile. More importantly, the level of recovery is quantitative at high enough protamine concentrations. Further, the recovery was instantaneous as no extended incubation was necessary to observe reversal. The concentration of protamine necessary to recover 50% thrombin activity, i.e., RC50, could be calculated using an equation similar to the logistic equation 1 used for inhibition studies and found to be ˜0.1 μg/ml, […] for SbO4L inhibition of thrombin.

In the case of protamine, the “RC50 relative to IC50 (fold higher)” value is given as 5 fold. For the setting “after 50% inhibition by SbO4L, pH 7.4, 37° C.”, the “RC50, concentration of protamine necessary to recover 50% thrombin activity” value was roughly 0.1 µg/mL. For the same substance, the thrombin activity restored (chromogenic test systems) stood at 100%. Besides, the “effect of protamine alone on thrombin activity” value (controls without SbO4L) was “did not affect the activity of thrombin”.
